Measurements from patent publication US11395828B2, “Spironolactone aqueous compositions” (CMP DEVELOPMENT LLC, priority 2015, dated 2022).
Values after ≈ are worked out from the molar mass of the structure shown.

How the values were obtained:
[1] = Particle size by laser diffraction; format: physicochemical; conditions: spironolactone solid prior to composition manufacture
Procedure: Particle size measurements were performed on spironolactone (prior to composition manufacture) and on the particulate matter present in the compositions described herein by laser diffraction. The reported particle sizes D(v, 0.1), D(v, 0.5), and D(v, 0.9) relate to the mass median diameter (in μm) of the volume of distribution of the given particles. […] Alternatively, particle size can be estimated using optical microscopy.

Dissolution, USP <711> = format: physicochemical; conditions: USP <711> dissolution study
Procedure: Dissolution was measured in a manner consistent with USP <711> reporting the amount of dissolved spironolactone as a percent of labeled content with an associated relative standard devision (“RSD”).

[2] = sorbic acid and sorbate; cited from earlier work
[3] = added to a standard therapy for adults with severe heart failure; cited from earlier work
[4] = reported in Pramar et al.; cited from earlier work
[5] = Pramar et al.; cited from earlier work

Row | SMILES | particle size D(v, 0.5) [1] | particle size D(v, 0.9) [1] | labeled content dissolved at 5-minutes (Dissolution, USP <711>) | also measured
1 | CC(=O)S[C@@H]1CC2=CC(=O)CC[C@]2(C)[C@H]2CC[C@@]3(C)[C@@H](CC[C@@]34CCC(=O)O4)[C@H]12 [unmicronized spironolactone, spironolactone] | 18.3 µm | 35.5 µm | about 50 % of labeled content | particle size D(v, 0.1) [1]: 7.47 µm
2 | C/C=C/C=C/C(=O)O [sorbic acid] | – | – | – | equilibrium pKa-value [2]: about 4.8
3 | CC(=O)S[C@@H]1CC2=CC(=O)CC[C@]2(C)[C@H]2CC[C@@]3(C)[C@@H](CC[C@@]34CCC(=O)O4)[C@H]12 [Spironolactone] | – | – | – | reduction in mortality [3]: 30%; aqueous solubility [4]: 28 µg/mL (≈ 67.2 µM); pH at which spironolactone exhibits maximum stability [5]: 4.5
4 | CC(=O)S[C@@H]1CC2=CC(=O)CC[C@]2(C)[C@H]2CC[C@@]3(C)[C@@H](CC[C@@]34CCC(=O)O4)[C@H]12 [micronized spironolactone, spironolactone] | about 3.64 m | about 9.42 m | about 90 % of labeled content | –
